≈ marks a conversion by molar mass, not a printed value.
Experiments:
P. aeruginosa MSC01035 = experiment: MIC, agar plate dilution method, P. aeruginosa MSC01035; assay type: cell-based, Pseudomonas aeruginosa; details: P. aeruginosa MSC01035, ABK-resistant; for MIC: Pseudomonas aeruginosa, read-out: minimal inhibitory concentration (MIC)
Method: (§1) As for the representative compounds of a new aminoglycoside antibiotic of the present invention described in Examples, the minimal inhibitory concentration (MIC, μg/mL) was measured for various assay strains of bacteria using an agar plate dilution method in accordance with the method described in the Japan Society of Chemotherapy.

P. aeruginosa PAO1/GN315 = experiment: MIC, agar plate dilution method, P. aeruginosa PAO1/GN315; assay type: cell-based, Pseudomonas aeruginosa; details: for minimal inhibitory concentration (MIC): P. aeruginosa PAO1/GN315, AMK-resistant; for MIC: Pseudomonas aeruginosa, read-out: minimal inhibitory concentration (MIC), P. aeruginosa PAO1/GN315, AMK-resistant
Method: as §1

[1] = system: K. pneumoniae ATCC BAA-1705; experiment: MIC, agar plate dilution method, K. pneumoniae ATCC BAA-1705; assay type: cell-based, Klebsiella pneumoniae; details: for minimal inhibitory concentration (MIC): K. pneumoniae ATCC BAA-1705, KPC-producing strain; for MIC: Klebsiella pneumoniae, ATCCBAA1705, K. pneumoniae ATCC BAA-1705, KPC-producing strain, read-out: minimal inhibitory concentration (MIC)
Method: as §1

S. aureus RN4220/pMS520 = experiment: MIC, agar plate dilution method, S. aureus RN4220/pMS520; assay type: cell-based, Staphylococcus aureus; details: for minimal inhibitory concentration (MIC): S. aureus RN4220/pMS520, MRSA; for MIC: Staphylococcus aureus, MRSA, read-out: minimal inhibitory concentration (MIC), S. aureus RN4220/pMS520, MRSA
Method: as §1

S. marcescens GN6944 = experiment: MIC, agar plate dilution method, S. marcescens GN6944; assay type: cell-based, Serratia marcescens; details: S. marcescens GN6944, GM-resistant; for MIC: Serratia marcescens, read-out: minimal inhibitory concentration (MIC)
Method: as §1

S. aureus MF490 = experiment: MIC, agar plate dilution method, S. aureus MF490; assay type: cell-based, Staphylococcus aureus; details: for minimal inhibitory concentration (MIC): S. aureus MF490, MRSA; for MIC: Staphylococcus aureus, MRSA, read-out: minimal inhibitory concentration (MIC)
Method: as §1

[2] = system: A. baumannii ATCC BAA-1710; experiment: MIC, agar plate dilution method, A. baumannii ATCC BAA-1710; assay type: cell-based, Acinetobacter baumannii; details: for minimal inhibitory concentration (MIC): A. baumannii ATCC BAA-1710, MDRA; for MIC: Acinetobacter baumannii, ATCCBAA1710, A. baumannii ATCC BAA-1710, MDRA, read-out: minimal inhibitory concentration (MIC)
Method: as §1

E. faecium ATCC19434 = experiment: MIC, agar plate dilution method, E. faecium ATCC19434; assay type: cell-based, Enterococcus faecium; details: for minimal inhibitory concentration (MIC): E. faecium ATCC19434; for MIC: Enterococcus faecium, ATCC19434, E. faecium ATCC19434, read-out: minimal inhibitory concentration (MIC)
Method: as §1

[3] = system: K. pneumoniae ATCC BAA-2146; experiment: MIC, agar plate dilution method, K. pneumoniae ATCC BAA-2146; assay type: cell-based, Klebsiella pneumoniae; details: for minimal inhibitory concentration (MIC): K. pneumoniae ATCC BAA-2146, NDM-producing strain; for MIC: Klebsiella pneumoniae, ATCCBAA2146, K. pneumoniae ATCC BAA-2146, NDM-producing strain, read-out: minimal inhibitory concentration (MIC)
Method: as §1

P. aeruginosa MSC17707 = experiment: MIC, agar plate dilution method, P. aeruginosa MSC17707; assay type: cell-based, Pseudomonas aeruginosa; details: for minimal inhibitory concentration (MIC): P. aeruginosa MSC17707, AMK-resistant; for MIC: Pseudomonas aeruginosa, MSC17707, P. aeruginosa MSC17707, AMK-resistant, read-out: minimal inhibitory concentration (MIC)
Method: as §1

S. marcescens TH-0447 = experiment: MIC, agar plate dilution method, S. marcescens TH-0447; assay type: cell-based, Serratia marcescens; details: for minimal inhibitory concentration (MIC): S. marcescens TH-0447, AMK-resistant; for MIC: Serratia marcescens, TH0447, S. marcescens TH-0447, AMK-resistant, read-out: minimal inhibitory concentration (MIC)
Method: as §1

E. coli JM109/pMW218 = experiment: MIC, agar plate dilution method, E. coli JM109/pMW218; assay type: cell-based, Escherichia coli; details: for minimal inhibitory concentration (MIC): E. coli JM109/pMW218, Sensitive bacterium; for MIC: Escherichia coli, JM109/PMW218, E. coli JM109/pMW218, Sensitive bacterium, read-out: minimal inhibitory concentration (MIC)
Method: as §1

P. aeruginosa PAO1 = experiment: MIC, agar plate dilution method, P. aeruginosa PAO1; assay type: cell-based, Pseudomonas aeruginosa; details: for minimal inhibitory concentration (MIC): P. aeruginosa PAO1, Sensitive bacterium; for MIC: Pseudomonas aeruginosa, PAO1, P. aeruginosa PAO1, Sensitive bacterium, read-out: minimal inhibitory concentration (MIC)
Method: as §1

S. aureus RN4220 = experiment: MIC, agar plate dilution method, S. aureus RN4220; assay type: cell-based, Staphylococcus aureus; details: for minimal inhibitory concentration (MIC): S. aureus RN4220, Sensitive bacterium; for MIC: Staphylococcus aureus, RN4220, S. aureus RN4220, Sensitive bacterium, read-out: minimal inhibitory concentration (MIC)
Method: as §1

Row | Compound | minimal inhibitory concentration (MIC) (P. aeruginosa MSC01035) | minimal inhibitory concentration (MIC) (P. aeruginosa PAO1/GN315) | minimal inhibitory concentration (MIC) [1] | minimal inhibitory concentration (MIC) (S. aureus RN4220/pMS520) | minimal inhibitory concentration (MIC) (S. marcescens GN6944) | minimal inhibitory concentration (MIC) (S. aureus MF490) | minimal inhibitory concentration (MIC) [2] | minimal inhibitory concentration (MIC) (E. faecium ATCC19434) | minimal inhibitory concentration (MIC) [3] | minimal inhibitory concentration (MIC) (P. aeruginosa MSC17707) | minimal inhibitory concentration (MIC) (S. marcescens TH-0447) | minimal inhibitory concentration (MIC) (E. coli JM109/pMW218) | minimal inhibitory concentration (MIC) (P. aeruginosa PAO1) | minimal inhibitory concentration (MIC) (S. aureus RN4220) | MIC (P. aeruginosa MSC01035) | MIC (P. aeruginosa PAO1/GN315) | MIC [1] | MIC (S. aureus RN4220/pMS520) | MIC (S. marcescens GN6944) | MIC (S. aureus MF490) | other results
1 | CN[C@@H]1[C@@H](O[C@H]2O[C@H](CO)[C@@H](N)[C@@H](O)[C@H]2O)O[C@H]2C[C@@H](N)[C@@H](O[C@H]3[C@H](O)[C@@H](O)[C@H](N)C[C@@H]3N)O[C@@H]2[C@@H]1O [Compound H3, 3″-epiapramycin] | 8 µg/mL (≈ 14.8 µM) | 8 µg/mL (≈ 14.8 µM) | 2 µg/mL (≈ 3.71 µM) | 4 µg/mL (≈ 7.41 µM) | 8 µg/mL (≈ 14.8 µM) | 8 µg/mL (≈ 14.8 µM) | 8 µg/mL (≈ 14.8 µM) | 16 µg/mL (≈ 29.7 µM) | 2 µg/mL (≈ 3.71 µM) | 8 µg/mL (≈ 14.8 µM) | 8 µg/mL (≈ 14.8 µM) | 2 µg/mL (≈ 3.71 µM) | 8 µg/mL (≈ 14.8 µM) | 4 µg/mL (≈ 7.41 µM) | – | – | – | – | – | – | –
2 | CNC1C(OC2OC(CO)C(N)C(O)C2O)OC2CC(N)C(OC3C(N)CC(N)C(O)C3O)OC2C1O (stereo not shown) [Compound I3, 2″,3″-diepiapramycin] | 64 µg/mL (≈ 119 µM) | 32 µg/mL (≈ 59.3 µM) | 4 µg/mL (≈ 7.41 µM) | 8 µg/mL (≈ 14.8 µM) | 16 µg/mL (≈ 29.7 µM) | 32 µg/mL (≈ 59.3 µM) | 16 µg/mL (≈ 29.7 µM) | 32 µg/mL (≈ 59.3 µM) | 4 µg/mL (≈ 7.41 µM) | 32 µg/mL (≈ 59.3 µM) | 32 µg/mL (≈ 59.3 µM) | 4 µg/mL (≈ 7.41 µM) | 16 µg/mL (≈ 29.7 µM) | 8 µg/mL (≈ 14.8 µM) | – | – | – | – | – | – | –
3 | CNC1C(O[C@H]2OC(CF)[C@@H](N)[C@H](O)C2O)O[C@H]2CC(N)[C@@H](O[C@@H]3C(N)C[C@@H](N)C(O)[C@H]3O)OC2C1O (stereo partly shown) [Compound J4, 6″-deoxy-6″-fluoroapramycin] | – | – | – | – | – | – | – | – | – | – | – | – | – | – | 16 µg/mL (≈ 29.5 µM) | 8 µg/mL (≈ 14.8 µM) | 2 µg/mL (≈ 3.69 µM) | 4 µg/mL (≈ 7.39 µM) | 16 µg/mL (≈ 29.5 µM) | 16 µg/mL (≈ 29.5 µM) | MIC [2]: 32 µg/mL (≈ 59.1 µM); MIC (E. faecium ATCC19434): 32 µg/mL (≈ 59.1 µM); MIC [3]: 2 µg/mL (≈ 3.69 µM); MIC (P. aeruginosa MSC17707): 16 µg/mL (≈ 29.5 µM); MIC (S. marcescens TH-0447): 16 µg/mL (≈ 29.5 µM); MIC (E. coli JM109/pMW218): 2 µg/mL (≈ 3.69 µM); MIC (P. aeruginosa PAO1): 8 µg/mL (≈ 14.8 µM); MIC (S. aureus RN4220): 8 µg/mL (≈ 14.8 µM)
4 | CN[C@@H]1[C@@H](O[C@H]2O[C@H](C)[C@@H](N)C[C@H]2O)O[C@H]2C[C@@H](N)[C@@H](O[C@H]3[C@H](O)[C@@H](O)[C@H](N)C[C@@H]3N)O[C@@H]2[C@@H]1O [Compound K4, 3″,6″-dideoxyapramycin] | 16 µg/mL (≈ 31.5 µM) | 8 µg/mL (≈ 15.8 µM) | 2 µg/mL (≈ 3.94 µM) | 2 µg/mL (≈ 3.94 µM) | 4 µg/mL (≈ 7.88 µM) | 8 µg/mL (≈ 15.8 µM) | 16 µg/mL (≈ 31.5 µM) | 8 µg/mL (≈ 15.8 µM) | 1 µg/mL (≈ 1.97 µM) | 16 µg/mL (≈ 31.5 µM) | 8 µg/mL (≈ 15.8 µM) | 1 µg/mL (≈ 1.97 µM) | 8 µg/mL (≈ 15.8 µM) | 2 µg/mL (≈ 3.94 µM) | – | – | – | – | – | – | –
5 | CNC1C(O[C@H]2OC(C)[C@@H](N)[C@H](O)C2O)O[C@H]2CC(N)[C@@H](O[C@H]3CC(O)[C@H](N)CC3N)OC2C1O (stereo partly shown) [Compound L5, 5,6″-dideoxyapramycin] | – | – | – | – | – | – | – | – | – | – | – | – | – | – | 8 µg/mL (≈ 15.8 µM) | 4 µg/mL (≈ 7.88 µM) | 1 µg/mL (≈ 1.97 µM) | 1 µg/mL (≈ 1.97 µM) | 4 µg/mL (≈ 7.88 µM) | 4 µg/mL (≈ 7.88 µM) | MIC [2]: 8 µg/mL (≈ 15.8 µM); MIC (E. faecium ATCC19434): 8 µg/mL (≈ 15.8 µM); MIC [3]: 1 µg/mL (≈ 1.97 µM); MIC (P. aeruginosa MSC17707): 8 µg/mL (≈ 15.8 µM); MIC (S. marcescens TH-0447): 4 µg/mL (≈ 7.88 µM); MIC (E. coli JM109/pMW218): 1 µg/mL (≈ 1.97 µM); MIC (P. aeruginosa PAO1): 4 µg/mL (≈ 7.88 µM); MIC (S. aureus RN4220): 2 µg/mL (≈ 3.94 µM)

Source: US11135234B2, “Effective aminoglycoside antibiotic for multidrug-resistant bacteria” (MICROBIAL CHEMISTRY RESEARCH FOUNDATION, priority 2015, dated 2021)
